Read-outs that look alike come from different tables or passages of the source.
Columns and labels:
Type in all cases: cell-based, human
[1] = system: oral (buccal) mucosa cells (TR146); assay: Sub(G0/G1) cell population (cell cycle) against radiation induced damage; details: for % Decrease in Apoptotic cells (with respect to control): Sub G0/G1
Procedure: (§1) To determine the effect of test item on cell cycle, oral buccal mucosal cells (TR146) were incubated overnight in 5% CO2 incubator at 37° C. for 24 h. […] After 24 h of treatment, cells were exposed to chemotherapy (5-FU 10 mM) for 24 h or radiotherapy (Gamma radiation (3.5 kGy) using Cobalt 60) for 2 h.
(§2) After incubation, cells were harvested by trypsinization and processed for Cell cycle assay. Accordingly, cells were harvested into prelabeled centrifuge tubes and centrifuged at 450 g for 5 min at room temperature (RT, low brake). The supernatants were removed carefully and discarded. 1 ml of 1× phosphate buffer saline (PBS) was added to the pellet and resuspended gently to make homogenous suspension. Cells were centrifuged at 450 g for 5 min, RT (low brake). The supernatant was carefully removed leaving behind approx. 100 μl of PBS. Cells were resuspended gently yet thoroughly in residual PBS. Ice-cold 70% ethanol (100 μl) was added drop-wise into cells in each tube while vortexing at low speed (fixation step). Cells stored at 4° C. for 24 h were centrifuged at 450 g for 5 min, RT (low brake). The supernatant was carefully removed without touching the pellet and discarded. 1 ml of 1×PBS was added into pellet and resuspended gently. Cells were incubated for 1 minute at RT. Cells were centrifuged at 450 g for 5 min, RT (low brake). The supernatant was removed carefully without touching the pellet, leaving behind approx. 20-50 μl of PBS. 200 μl of cell cycle reagent was added into each tube. Cells were resuspended gently and mixed. Cells were incubated for 30 min at RT in the dark. The stained samples were transferred into 96-well plates and acquired on flow cytometer (Guava technologies). Percentage of cells in Sub (G0/G1) phase were determined based on the concept that cell cycle reagent contains PI stain, which stains DNA of cells in different phases of cell cycle; Sub (G0/G1), G1, S, G2 and M. Cells in Sub (G0/G1) phase correspond to apoptotic cells. Percent inhibition in apoptotic cells is determined by the formula:
(§3) =[(% Sub(G0/G1) cells in 5-FU/radiation alone)−(% Sub(G0/G1) cells in TI+5-FU/radiation)/% Sub(G0/G1) cells in 5-FU/radiation alone]*100

[2] = system: oral (buccal) mucosa cells (TR146); assay: Restoration of mitochondrial membrane potential (JC-1) against radiation induced damage; details: for MMP: red/green JC-1 fluorescence ratio
Procedure: Oral buccal mucosal cells (TR146) were incubated overnight in 5% CO2 incubator at 37° C. for 24 h. […] After 24 h of treatment, cells were exposed to damage (5-FU 5 mM) for 1.25 h for chemotherapy induced inflammation and exposed to gamma radiation (3.5 kGy) using Cobalt 60 for radiation induced inflammation. After the exposure, the anti-apoptotic effect of SEQ ID NO 2 was determined by restoration of mitochondrial membrane depolarization by JC-1 staining and reduction in apoptotic cell populations (Annexin positive and subG0/G1 cells in cell cycle analysis).
After incubation, the supernatants were discarded and 100 μl of JC1-dye solution (prepared by diluting 1 mM DMSO stock into 10 μM in 1×PBS) was added to each well. The cells were then incubated with the dye in CO2 incubator at 37° C. for 15 min, after which the supernatant was removed, and the cells were washed twice with 1×PBS. 100 μl of 1×PBS was finally added to each well. Red fluorescence (excitation 550 nm, emission 600 nm) and green fluorescence (excitation 485 nm, emission 535 nm) were measured using Biotek Synergy HT plate reader. The mitochondrial membrane potential (Δψm) was calculated as the ratio of intensity of red fluorescence to intensity of green fluorescence.
The percentage increase/restoration in mitochondrial membrane potential (MMP) was calculated as: % Increase=[(R−X)/R]*100 • Where, X=Δψm corresponding to TI+5-FU treated cells or TI+radiation treated cells; R=Δψm corresponding to control cells (FU damaged or Radiation damaged alone)

[3] = system: oral (buccal) mucosa cells (TR146)
Procedure: The protective effect of the recombinant lectin on survival of TR146 cells against 5-FU induced damage was determined using following calculations:
The viability of cells was determined as: % Cell viability=(100−% Cytotoxicity); • where, the percentage cytotoxicity corresponding to each treatment was calculated as: % Cytotoxicity=[(R−X)/R]*100, wherein X=Absorbance of cells treated with 5-FU or radiation damage/TI+5-FU, R=Absorbance of Control cells (Untreated) and Percentage protection was calculated as:
{(Absorbance of TI+5-FU or radiation)−(Absorbance of 5-FU or radiation alone)/(Absorbance of Untreated)−(Absorbance of 5-FU alone)}*100

[4] = system: oral (buccal) mucosa cells (TR146); assay: Annexin positive cell population against 5-FU damage
NF-kB = assay: Multiplex analysis, chemotherapy (5-FU), TR146 cell lysates
Procedure: Oral buccal mucosal cells (TR146) cells were incubated overnight at 37° C. in 5% CO2 incubator. […] The cells were then stimulated with 5-FU (10 mM) for another 24h for chemotherapy and with gamma radiation (3.5 kGy) using Cobalt 60 for radiotherapy. After 24 h, cell culture supernatants were collected from each well and stored at −20° C. till multiplex analysis. For NF-kB estimations, cell lysates were prepared. Levels of biomarkers were estimated using Magpix® multiplex machine. The cells treated with Amifostine (along with 5-FU or radiation) were considered as positive control (PC). Untreated cells (5-FU or radiation alone treated) were used as negative control (NC).
The percent modulation in each sample was determined as follows:
[{Concentration of biomarkers (pg/ml) in Control cells (5-FU or radiation alone treated)−Concentration of biomarkers (pg/ml) in SEQ ID NO: 2+5-FU or radiation treated cells)}/Concentration of biomarkers (pg/ml) in Control cells (5-FU or radiation alone treated)]*100

[5] = system: oral (buccal) mucosa cells (TR146); assay: Sub(G0/G1) cell population (cell cycle) against 5-FU induced damage; details: for % Decrease in Apoptotic cells (with respect to control): Sub G0/G1
Procedure: as §1, §2, §3

[6] = 0.1 μg/ml + Radiation (3.5 kGy)

`NCCCNCCSP(=O)(O)O` [Amifostine, reference compound] was tested, and the “% Apoptotic cells (Sub G0/G1)” value [1, 6] was 19.4%, the “% Decrease in Apoptotic cells (with respect to control)” value (shortened to “% Decrease … (with respect to control)”) [1, 6] was 45.1% and the “% Apoptotic cells (Sub G0/G1)” value ([1]; 1 μg/ml + Radiation (3.5 kGy)) was 21.8%. For the same molecule, the “% Decrease … (with respect to control)” value ([1]; 1 μg/ml + Radiation (3.5 kGy)) was 38.2%, the “% Apoptotic cells (Sub G0/G1)” value ([1]; 10 μg/ml + Radiation (3.5 kGy)) was 12.9% and the “% Decrease … (with respect to control)” value ([1]; 10 μg/ml + Radiation (3.5 kGy)) was 63.5%. For the same molecule, the “% Increase in MMP (with respect to control)” value (from here on “% Increase in MMP”) [2, 6] was 28.2%, the MMP [2, 6] was 5.90 and the “% Increase in MMP” value ([2]; 1 μg/ml + Radiation (3.5 kGy)) was 39.7%. The MMP ([2]; 1 μg/ml + Radiation (3.5 kGy)) was 6.43, the “% Increase in MMP” value ([2]; 10 μg/ml + Radiation (3.5 kGy)) was 35.2% and the MMP ([2]; 10 μg/ml + Radiation (3.5 kGy)) was 6.23. For the same molecule, the “% Protection” value ([3]; 1 μg/ml + Radiation (3.5 kGy)) was 7.7%, the “% Protection” value ([3]; 5 μg/ml + Radiation (3.5 kGy)) was 22.2% and the “% Protection” value ([3]; 10 μg/ml + Radiation (3.5 kGy)) was 43.1%. The “% Protection” value ([3]; 25 μg/ml + Radiation (3.5 kGy)) was 12%, the “% Apoptotic cells (Annexin +ve)” value ([4]; 1 μg/ml + 5FU (10 mM)) was 2.4% and the “% Decrease in Apoptotic cells (with respect to 5-FU)” value (from here on “% Decrease … (with respect to 5-FU)”) ([4]; 1 μg/ml + 5FU (10 mM)) was 85.7%. The “% Apoptotic cells (Annexin +ve)” value ([4]; 10 μg/ml + 5FU (10 mM)) was 2.6%, the “% Decrease … (with respect to 5-FU)” value ([4]; 10 μg/ml + 5FU (10 mM)) was 84.5% and the “% Apoptotic cells (Annexin +ve)” value ([4]; 50 μg/ml + 5FU (10 mM)) was 2.8%. For the same molecule, the “% Decrease … (with respect to 5-FU)” value ([4]; 50 μg/ml + 5FU (10 mM)) was 82.9%, the “Percentage Inhibition NF-kB” value (NF-kB; 1 μg/ml + 5-FU (10 mM)) was 100% and the “Percentage Inhibition NF-kB” value (NF-kB; 10 μg/ml + 5-FU (10 mM)) was 48.2%. For the same molecule, the “Percentage Inhibition NF-kB” value (NF-kB; 50 μg/ml + 5-FU (10 mM)) was 14.2%, the “% Apoptotic cells (Sub G0/G1)” value ([5]; 1 μg/ml + 5FU (10 mM)) was 13% and the “% Decrease … (with respect to control)” value ([5]; 1 μg/ml + 5FU (10 mM)) was 58%. For the same molecule, the “% Apoptotic cells (Sub G0/G1)” value ([5]; 10 μg/ml + 5FU (10 mM)) was 11.4%, the “% Decrease … (with respect to control)” value ([5]; 10 μg/ml + 5FU (10 mM)) was 63.2% and the “% Apoptotic cells (Sub G0/G1)” value ([5]; 25 μg/ml + 5FU (10 mM)) was 17%. The “% Decrease … (with respect to control)” value ([5]; 25 μg/ml + 5FU (10 mM)) was 45%, the “% Apoptotic cells (Sub G0/G1)” value ([5]; 50 μg/ml + 5FU (10 mM)) was 15.1% and the “% Decrease … (with respect to control)” value ([5]; 50 μg/ml + 5FU (10 mM)) was 50.9%.

— US20250064890A1, “PROTEIN COMPOSITIONS FOR THE TREATMENT OF INFLAMMATORY DISEASES” (Unichem Laboratories Limited, priority 2021, published 2025)
